Results on four molecules are retold here after patent publication US20010018071A1, “Oral 2-methyl-thieno-benzodiazepine formulation” (priority 1995, published 2001).

Data set [1] can be described thus: Detection of radiolabelled compound in saliva. Format: in vivo. As to the method:
The anhydrous Form I 2-methyl-4-(4-methyl-1-piperazinyl)-10H-thieno-[2,3-b][1,5]benzodiazepine compound is effective over a wide dosage range, the actual dose administered being dependent on the condition being treated. For example, in the treatment of adult humans, dosages of from about 0.25 to 50 mg, preferably from 1 to 30 mg, and most preferably 1 to 20 mg per day may be used. A once a day dosage is normally sufficient, although divided doses may be administered. For treatment of central nervous system disorders, a dose range of from 1 to 30 mg, preferably 1 to 20 mg per day is suitable. Radiolabelled Form I 2-methyl-4-(4-methyl-1-piperazinyl)-10H-thieno-[2,3-b]

The nature of data set [2]: Polymorph stability and transformation. To be noted: for polymorph stability: anhydrous crystal forms. Format: physicochemical. The text has this: Unfortunately, anhydrous Form II olanzapine is metastable and is therefore not well suited for commercial use in pharmaceutical formulations. Applicants have discovered that the pharmaceutically elegant anhydrous Form I olanzapine can be formulated in its substantially pure form as a stable solid oral preparation. Such formulation provides assurance of a uniform pharmaceutically elegant product substantially free of Form II impurity in order to comply with regulatory requirements.
Further certain excipients exacerbate physical instability. For commercial pharmaceutical development and compliance with regulatory guidelines, it is important to assure that marketed formulations comprise a uniform pharmaceutically elegant substantially pure anyhydrous Form I 2-methyl-4-(4-methyl-1-piperazinyl)-10H-thieno[2,3-b] [1,5] benzodiazepine compound as the active ingredient and most preferably the formulation is free from undesired discolorations.
(§1) The Form I 2-methyl-4-(4-methyl-1-piperazinyl)-10H-thieno[2,3-b]

Data set [3] can be described thus: Discoloration of olanzapine on contact with excipients. Type of data set: physicochemical.
Text: Further, the discoloration was exacerbated by ambient air conditions, at elevated temperatures, and by moist environments.
as §1

The structures appear in SMILES notation.

As for `Cc1cc2c(s1)Nc1ccccc1N=C2N1CCN(C)CC1` [2-methyl-4-(4-methyl-1-piperazinyl)-10H-thieno-[2,3-b] [1,5]benzodiazepine], the detection in saliva result in data set [1] is on record as “can be detected in the saliva”.

Regarding `Cc1cc2c(s1)Nc1ccccc1N=C2N1CCN(C)CC1` [Form I olanzapine, 2-methyl-4-(4-methyl-1-piperazinyl)-10H-thieno[2,3-b][1,5] benzodiazepine], in data set [2], the polymorph stability entry is on record as “most stable known form”. For the same molecule, in data set [2] (contact with methylene chloride), the polymorphic conversion result is on record as “can be converted to the less desirable polymorphic forms”.

In the case of `Cc1cc2c(s1)Nc1ccccc1N=C2N1CCN(C)CC1` [anhydrous Form II olanzapine, 2-methyl-4-(4-methyl-1-piperazinyl)-10H-thieno[2,3-b][1,5] benzodiazepine], the polymorph stability result in data set [2] is recorded as “metastable”.

With `Cc1cc2c(s1)Nc1ccccc1N=C2N1CCN(C)CC1` [olanzapine, 2-methyl-4-(4-methyl-1-piperazinyl)-10H-thieno[2,3-b][1,5] benzodiazepine], the discoloration result is reported as “undergoes undesirable discoloration” in data set [3] (contacted with certain excipients including powder blends) and “produces undesired discoloration” in data set [3] (polyethylene glycol contact, particularly under moist conditions).
